We go through one compound from EP0427518B1, “NMDA-Blocking compounds, pharmaceutical compositions, their preparation and use” (priority 1989, dated 1991).

Each structure is given as a SMILES string.

The test system of one test is C-57 Black mice. The test can be described thus: Inhibition of tremorogenic, convulsive and lethal effects of NMDA in C-57 Black mice. The class given is in vivo. As to the method: (§1) Sabra mice (an Israeli heterogenous strain) were pretreated with either vehicle alone (control) or HU-211 (1.25 or 2.50 mg/kg; s.c.), followed by NMDA (200 mg/kg; s.c.). […] Similar experiments were performed using C-57 Black mice, in which the dose of NMDA was decreased (100 mg/kg; s.c.). Counteraction by HU-211 of the NMDA-induced effects was more pronounced in the latter strain (which is more sensitive than Sabra mice to the effects of NMDA). In the control series of both strains, which received NMDA without HU-211, all animals died in less than 10 min. following seizure onset.
The experiments described in Table 2 were repeated with C-57 Black mice, HU-211 replaced by the compound of formula (II) (compound Vb, U.S. Patent No. 4,179,517) and the compound of formula (IIa)(compound XIb, ibid.). NMDA (100 mg/kg) was administered to the mice.
In addition, the experiments were repeated with the novel compound HU-247.

For a further test, the system named is Sabra mice. Put plainly: Inhibition of tremorogenic, convulsive and lethal effects of NMDA in Sabra mice. Format: in vivo. As to the method: as §1
Setting [1] is: C-57 Black mice, HU-211 1.25 mg/kg s.c. 75 min prior to NMDA 100 mg/kg s.c.
The mark [2] stands for this setting: C-57 Black mice, HU-211 2.50 mg/kg s.c. 75 min prior to NMDA 100 mg/kg s.c.
[3] abbreviates: Sabra mice, HU-211 2.5 mg/kg s.c. 75 min prior to NMDA 200 mg/kg s.c.

`CCCCCCC(C)(C)c1cc(O)c2c(c1)OC(C)(C)[C@H]1CC=C(CO)C[C@H]21` [HU-211, (+)-(3S,4S)-1,1-dimethylheptyl homolog of 7-hydroxy-Δ⁶-tetrahydrocannabinol]: the “mice that exhibited no tremors or seizures and stayed alive for more than four days following NMDA administration” value in the test on C-57 Black mice (C-57 Black mice pretreated with HU-211 (2.50 mg/kg s.c.), NMDA 100 mg/kg s.c.) is “six of the seven”; in the test with Sabra mice (Sabra mice pretreated with HU-211 (2.5 mg/kg s.c.), NMDA 200 mg/kg s.c.), “two of the five”. Further, the Time until death in the test on C-57 Black mice (setting [1]) is 18.6 ± 4.2 min; with C-57 Black mice (setting [2]), over 5800 min; in the test on Sabra mice (setting [3]), 20.2 ± 7.0 min. For the same compound, the entries for the “Time until first seizure” value in the test on C-57 Black mice (setting [1]), with C-57 Black mice (setting [2]) and with Sabra mice (setting [3]) were 13.2 ± 2.6 min, 5800 min and 18.0 ± 7.0 min, respectively. The “Time until first tremor” value is 12.0 ± 2.6 min in the test with C-57 Black mice (setting [1]), over 5800 min with C-57 Black mice (setting [2]) and 8.2 ± 1.3 min in the test on Sabra mice (setting [3]). In the test with C-57 Black mice (C-57 Black mice, repeated NMDA 100 mg/kg one day later in the six surviving mice, preliminary results), the “persistence of the anti-NMDA effects” value is on record as “more than 24 h”. Besides, in the test with C-57 Black mice (at about 2.5 mg/kg body weight, summary statement, mouse strain not given), the “blockade of NMDA-induced tremor, seizure and lethality” value is on record as “potent blockers”.
